Type in all cases: biochemical
Test [1] concerns the target T1, 320 wild-type protein kinases (Homo sapiens, UniProt Q9UKI8).
T1 sequence (Q9UKI8 1-766): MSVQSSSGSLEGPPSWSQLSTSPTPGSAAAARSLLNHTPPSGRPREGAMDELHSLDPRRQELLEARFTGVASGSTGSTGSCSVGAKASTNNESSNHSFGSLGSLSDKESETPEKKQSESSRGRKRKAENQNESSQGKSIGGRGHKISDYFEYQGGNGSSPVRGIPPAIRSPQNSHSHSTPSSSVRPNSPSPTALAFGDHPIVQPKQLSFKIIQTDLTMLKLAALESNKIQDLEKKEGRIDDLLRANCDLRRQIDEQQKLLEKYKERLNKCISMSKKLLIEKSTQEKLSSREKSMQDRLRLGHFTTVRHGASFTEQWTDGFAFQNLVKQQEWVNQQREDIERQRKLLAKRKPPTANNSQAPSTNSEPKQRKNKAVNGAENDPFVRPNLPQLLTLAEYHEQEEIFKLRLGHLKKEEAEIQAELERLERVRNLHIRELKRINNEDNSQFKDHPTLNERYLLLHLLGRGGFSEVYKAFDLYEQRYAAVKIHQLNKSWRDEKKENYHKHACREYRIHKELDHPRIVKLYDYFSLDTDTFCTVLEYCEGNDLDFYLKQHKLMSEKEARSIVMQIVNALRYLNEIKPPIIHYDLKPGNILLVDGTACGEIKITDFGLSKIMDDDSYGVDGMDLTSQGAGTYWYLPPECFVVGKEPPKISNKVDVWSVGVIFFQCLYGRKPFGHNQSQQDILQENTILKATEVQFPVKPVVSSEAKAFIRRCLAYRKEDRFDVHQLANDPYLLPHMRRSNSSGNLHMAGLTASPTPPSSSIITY
As to conditions: kinase TLK1, singlicate. The source says: (§1) Table S4. Profiling of two compounds at two concentrations against 320 wild-type protein kinases; singlicate measurement; Residual activities (% of control).

The target of test [2] is 320 wild-type protein kinases (Homo sapiens, UniProt P50750). As to conditions: singlicate.
Chain of 320 wild-type protein kinases (Homo sapiens, UniProt P50750) (P50750 whole entry): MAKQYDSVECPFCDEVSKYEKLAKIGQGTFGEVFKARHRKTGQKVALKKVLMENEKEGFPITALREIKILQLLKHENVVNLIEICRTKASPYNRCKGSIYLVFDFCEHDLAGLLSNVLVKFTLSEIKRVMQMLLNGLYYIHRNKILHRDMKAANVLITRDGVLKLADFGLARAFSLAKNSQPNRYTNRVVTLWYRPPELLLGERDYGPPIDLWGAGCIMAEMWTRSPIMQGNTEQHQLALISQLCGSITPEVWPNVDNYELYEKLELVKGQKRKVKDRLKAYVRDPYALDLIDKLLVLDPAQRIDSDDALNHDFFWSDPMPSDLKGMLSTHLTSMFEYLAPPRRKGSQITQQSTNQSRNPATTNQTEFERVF
Excerpt: as §1

The target of test [3] is 320 wild-type protein kinases (Homo sapiens, UniProt P29376). The note with it: LTK, singlicate.
Chain of 320 wild-type protein kinases (Homo sapiens, UniProt P29376) (P29376 17-864): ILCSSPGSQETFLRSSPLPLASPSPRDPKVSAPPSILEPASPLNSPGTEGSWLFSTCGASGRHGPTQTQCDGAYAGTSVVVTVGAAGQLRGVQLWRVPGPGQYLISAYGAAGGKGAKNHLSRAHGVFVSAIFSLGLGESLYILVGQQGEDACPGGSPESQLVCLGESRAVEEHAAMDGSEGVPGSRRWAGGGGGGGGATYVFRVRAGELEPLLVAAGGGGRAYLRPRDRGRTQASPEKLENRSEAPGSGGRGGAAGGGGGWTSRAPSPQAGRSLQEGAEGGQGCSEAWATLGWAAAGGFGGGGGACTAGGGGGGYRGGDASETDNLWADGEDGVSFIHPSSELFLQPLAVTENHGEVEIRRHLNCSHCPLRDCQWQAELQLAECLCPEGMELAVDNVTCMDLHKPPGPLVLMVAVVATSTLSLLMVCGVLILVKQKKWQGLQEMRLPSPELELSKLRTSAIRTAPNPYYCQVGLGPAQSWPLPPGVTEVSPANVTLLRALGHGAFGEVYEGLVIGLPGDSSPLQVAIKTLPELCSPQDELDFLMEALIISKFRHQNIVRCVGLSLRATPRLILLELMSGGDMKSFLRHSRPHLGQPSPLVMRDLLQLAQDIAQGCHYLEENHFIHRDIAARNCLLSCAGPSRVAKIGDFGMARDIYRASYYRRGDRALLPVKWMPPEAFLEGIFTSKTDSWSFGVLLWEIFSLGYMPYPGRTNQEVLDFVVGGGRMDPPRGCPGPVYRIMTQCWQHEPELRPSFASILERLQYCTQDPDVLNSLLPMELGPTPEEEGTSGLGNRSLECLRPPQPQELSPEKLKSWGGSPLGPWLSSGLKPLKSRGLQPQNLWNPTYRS
Excerpt: as §1

For test [4], the target named is 320 wild-type protein kinases (Homo sapiens, UniProt P14616). The note with it: INSR-R, singlicate.
Chain of 320 wild-type protein kinases (Homo sapiens, UniProt P14616) (P14616 27-1297): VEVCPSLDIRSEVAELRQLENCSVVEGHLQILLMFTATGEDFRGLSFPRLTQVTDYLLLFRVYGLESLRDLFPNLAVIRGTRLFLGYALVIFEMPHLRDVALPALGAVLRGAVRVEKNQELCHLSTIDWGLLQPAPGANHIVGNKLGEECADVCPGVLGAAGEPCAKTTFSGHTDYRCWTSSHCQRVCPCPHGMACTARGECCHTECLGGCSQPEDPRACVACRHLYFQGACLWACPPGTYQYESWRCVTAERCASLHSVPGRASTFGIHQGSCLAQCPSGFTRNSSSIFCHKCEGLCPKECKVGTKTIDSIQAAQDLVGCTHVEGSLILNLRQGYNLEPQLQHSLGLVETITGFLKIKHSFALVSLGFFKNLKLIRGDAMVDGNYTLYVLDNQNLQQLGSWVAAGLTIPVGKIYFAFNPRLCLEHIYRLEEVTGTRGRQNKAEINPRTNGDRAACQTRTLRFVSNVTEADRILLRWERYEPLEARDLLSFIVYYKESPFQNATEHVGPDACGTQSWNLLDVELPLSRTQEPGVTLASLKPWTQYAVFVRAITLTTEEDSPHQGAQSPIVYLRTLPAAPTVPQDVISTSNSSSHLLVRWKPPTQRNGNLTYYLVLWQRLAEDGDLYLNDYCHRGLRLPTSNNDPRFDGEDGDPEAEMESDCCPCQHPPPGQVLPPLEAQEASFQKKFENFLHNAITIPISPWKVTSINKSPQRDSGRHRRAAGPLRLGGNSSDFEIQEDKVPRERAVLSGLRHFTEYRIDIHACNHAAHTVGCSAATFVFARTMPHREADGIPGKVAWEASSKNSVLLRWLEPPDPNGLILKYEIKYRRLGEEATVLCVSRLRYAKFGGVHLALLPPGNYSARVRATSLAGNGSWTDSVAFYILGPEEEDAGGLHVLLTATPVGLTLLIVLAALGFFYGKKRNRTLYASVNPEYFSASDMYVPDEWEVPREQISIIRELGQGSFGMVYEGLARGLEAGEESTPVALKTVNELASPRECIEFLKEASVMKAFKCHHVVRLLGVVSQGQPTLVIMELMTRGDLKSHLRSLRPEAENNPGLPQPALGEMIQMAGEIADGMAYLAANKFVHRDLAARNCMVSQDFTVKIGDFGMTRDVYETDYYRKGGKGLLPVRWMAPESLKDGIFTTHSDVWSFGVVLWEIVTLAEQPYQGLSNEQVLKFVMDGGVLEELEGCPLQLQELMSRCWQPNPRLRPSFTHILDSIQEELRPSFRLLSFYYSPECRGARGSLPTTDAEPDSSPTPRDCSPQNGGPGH
Excerpt: as §1

Test [5] deals with 320 wild-type protein kinases (Homo sapiens, UniProt Q9HCP0). As to conditions: singlicate.
Chain of 320 wild-type protein kinases (Homo sapiens, UniProt Q9HCP0) (Q9HCP0 whole entry): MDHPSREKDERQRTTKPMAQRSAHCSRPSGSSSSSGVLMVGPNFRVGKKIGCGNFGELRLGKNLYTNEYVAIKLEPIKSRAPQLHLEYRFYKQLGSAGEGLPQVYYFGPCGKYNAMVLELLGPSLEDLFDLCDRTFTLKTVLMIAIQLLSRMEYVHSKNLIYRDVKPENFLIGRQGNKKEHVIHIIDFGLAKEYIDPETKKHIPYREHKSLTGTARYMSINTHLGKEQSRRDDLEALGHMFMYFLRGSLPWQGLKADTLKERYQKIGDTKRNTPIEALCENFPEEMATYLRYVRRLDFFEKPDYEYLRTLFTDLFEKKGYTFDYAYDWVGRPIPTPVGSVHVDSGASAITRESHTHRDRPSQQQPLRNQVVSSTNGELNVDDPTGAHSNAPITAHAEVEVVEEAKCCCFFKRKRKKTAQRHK
Excerpt: as §1

For test [6], the target named is T2, 320 wild-type protein kinases (Homo sapiens, UniProt P53778).
T2 sequence (P53778 1-367): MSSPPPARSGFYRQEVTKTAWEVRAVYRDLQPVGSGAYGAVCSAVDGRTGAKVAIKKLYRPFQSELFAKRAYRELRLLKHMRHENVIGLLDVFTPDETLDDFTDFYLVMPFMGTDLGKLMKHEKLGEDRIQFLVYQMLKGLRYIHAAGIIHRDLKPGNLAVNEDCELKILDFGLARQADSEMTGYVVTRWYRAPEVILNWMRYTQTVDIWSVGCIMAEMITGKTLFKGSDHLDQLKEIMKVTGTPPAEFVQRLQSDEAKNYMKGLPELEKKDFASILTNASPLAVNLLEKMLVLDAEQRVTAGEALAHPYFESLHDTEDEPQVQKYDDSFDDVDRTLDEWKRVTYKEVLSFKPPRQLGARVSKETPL
As to conditions: p38-gamma, singlicate.
Excerpt: as §1

The target of test [7] is T3, 320 wild-type protein kinases (Homo sapiens, UniProt P36897).
T3 sequence (P36897 34-503): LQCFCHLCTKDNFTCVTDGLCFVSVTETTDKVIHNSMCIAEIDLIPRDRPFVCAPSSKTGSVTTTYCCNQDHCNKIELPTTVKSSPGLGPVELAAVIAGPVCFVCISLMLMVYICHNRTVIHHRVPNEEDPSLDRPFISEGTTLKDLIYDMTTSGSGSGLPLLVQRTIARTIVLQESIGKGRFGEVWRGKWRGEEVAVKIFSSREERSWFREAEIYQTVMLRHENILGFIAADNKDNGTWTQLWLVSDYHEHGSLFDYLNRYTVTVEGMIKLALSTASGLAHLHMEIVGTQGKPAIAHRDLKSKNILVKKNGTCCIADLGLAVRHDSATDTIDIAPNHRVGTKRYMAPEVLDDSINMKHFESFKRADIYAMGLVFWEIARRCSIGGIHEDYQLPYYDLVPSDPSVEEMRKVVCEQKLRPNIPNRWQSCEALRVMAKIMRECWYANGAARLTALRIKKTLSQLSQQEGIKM
As to conditions: kinase TGFB-R1, singlicate.
Excerpt: as §1

In test [8] the target is 320 wild-type protein kinases (Homo sapiens, UniProt Q13627). The note with it: DYRK1A, singlicate.
Excerpt: as §1

Read-outs that look alike come from different tables or passages of the source.

We go through two molecules from paper PMC9329436, “Optimization of the 4-anilinoquin(az)oline scaffold as epidermal growth factor receptor (EGFR) inhibitors for chordoma utilizing a toxicology profiling assay platform” (Scientific Reports, 2022).

On to `C#Cc1cc(Nc2ncnc3cc(OC)c(OC)cc23)ccc1Cl` [Compound 45], for which the figures for the “Residual activity, TLK1” value in test [1] (assay conc. 1.0E-06 M) and in test [1] (assay conc. 1.0E-07 M) were 108 % of control and 112 % of control, respectively. Further, the Residual activity in test [2] (CDK9/CycK, 1.0E-06 M) was 86 % of control; in test [2] (CDK9/CycK, 1.0E-07 M), 103 % of control; in test [2] (CDK9/CycT1, 1.0E-06 M), 88 % of control; in test [2] (CDK9/CycT1, 1.0E-07 M), 90 % of control; in test [3] (1.0E-06 M) it was 54 % of control; in test [3] (1.0E-07 M) it was 100 % of control. The Residual activity in test [4] (1.0E-06 M) is recorded as 99 % of control; in test [4] (1.0E-07 M), 103 % of control; in test [5] (CK1-gamma1, 1.0E-06 M) it was 100 % of control; in test [5] (CK1-gamma1, 1.0E-07 M) it was 112 % of control; in test [6] (1.0E-06 M), 85 % of control; in test [6] (1.0E-07 M), 90 % of control. The Residual activity in test [8] (1.0E-06 M) is 91 % of control; in test [8] (1.0E-07 M), 85 % of control. Further, the figures for the “Residual activity, TGFB-R1” value in test [7] (assay conc. 1.0E-06 M) and in test [7] (assay conc. 1.0E-07 M) were 75 % of control and 84 % of control, respectively.
Consider `C#Cc1cc(Nc2ncnc3cc(I)ccc23)ccc1Cl` [Compound 41], for which the “Residual activity, TLK1” value in test [1] (assay conc. 1.0E-06 M) is recorded as 100 % of control; in test [1] (assay conc. 1.0E-07 M) it was 110 % of control. Besides, the Residual activity was 80 % of control in test [2] (CDK9/CycK, 1.0E-06 M); 99 % of control in test [2] (CDK9/CycK, 1.0E-07 M); 92 % of control in test [2] (CDK9/CycT1, 1.0E-06 M); 95 % of control in test [2] (CDK9/CycT1, 1.0E-07 M); 77 % of control in test [3] (1.0E-06 M); 106 % of control in test [3] (1.0E-07 M). Further, the Residual activity in test [4] (1.0E-06 M) is listed as 93 % of control; in test [4] (1.0E-07 M), 96 % of control; in test [5] (CK1-gamma1, 1.0E-06 M), 123 % of control; in test [5] (CK1-gamma1, 1.0E-07 M), 125 % of control; in test [6] (1.0E-06 M), 78 % of control; in test [6] (1.0E-07 M) it was 87 % of control. The Residual activity was 75 % of control in test [8] (1.0E-06 M) and 84 % of control in test [8] (1.0E-07 M). Also, the “Residual activity, TGFB-R1” value was 81 % of control in test [7] (assay conc. 1.0E-06 M) and 86 % of control in test [7] (assay conc. 1.0E-07 M).
